Laboratory results from patent US20250163062A1, “WNT PATHWAY INHIBITOR COMPOUNDS” (ADLAI NORTYE BIOPHARMA CO., LTD., priority 2022, published 2025).

Legend:
Format in all cases: cell-based
H929 = test: Proliferation inhibition test, Wnt mutant cell line H929; settings: Homo sapiens, NCI-H929, 96 h, H929, 96 h culture with compound; read-out: Antiproliferation IC50 H929
From the text: (§1) The cell lines used in the experiment are Colo205, H929, HepG2, and DU4475, which have sustained activation of the Wnt pathway and whose proliferation is Wnt pathway-dependent. On the other hand, RKO cell line, in which normally the Wnt pathway is not activated and whose proliferation is not Wnt pathway-dependent, was used as a control cell line. This was done to determine whether the inhibitory effect of the compound of the present disclosure on Wnt-dependent proliferation is due to other nonspecific toxicity.
(§2) Colo205, H929, DU4475, HepG2 and RKO cell lines cultured in their respective culture media were treated in the logarithmic growth phase, and the cells were collected and prepared into a uniform cell suspension of known concentration, and then added to a 96-well cell culture plate so that each well contained 1000-4000 cells. Place in a 5% CO2 cell culture incubator and culture at 37° C. for 20-24 h. On the second day, add the completely dissolved, 3-fold gradient dilution compound to each cell culture well to make the final maximum concentration in the cell culture well 10 uM, and continue to culture for 96 h. This test uses Promega's cell activity detection test for detection. The more the cells proliferate, the stronger the final signal intensity. The detection instrument is SpectraMax, full wavelength mode. The wells with only DMSO added were used as positive control wells, and the wells without cells inoculated were used as negative control wells.

RKO = test: Proliferation inhibition test, non-Wnt mutant control cell line RKO; settings: Homo sapiens; RKO (Wnt pathway not activated, control), 96 h culture, maximum concentration 10 uM; read-out: Antiproliferation IC50 RKO
From the text: as §1, §2

DU4475 = test: Proliferation inhibition test, Wnt mutant cell line DU4475; settings: Homo sapiens, DU-4475, 96 h, DU4475, 96 h culture with compound; read-out: Antiproliferation IC50 DU4475
From the text: as §1, §2

[1] = system: Colo205-LUC-TCF/LEF reporter gene; test: Colo205-LUC-TCF/LEF M1 reporter cell line luciferase inhibition; settings: 4 h, 4 hours incubation, firefly luciferase signal
Experimental: Colo205 cell line (Cell Bank of Chinese Academy of Sciences, Cat #TCHul02) was purchased from the Cell Bank of Chinese Academy of Sciences. After expansion and subculture, during the exponential growth phase, luciferase reporter plasmid (Promega) driven by TCF/LEF transcription factor was transfected by lipo3000 liposome transfection. The plasmid carries a resistance gene for resistance screening. Transfection was carried out in 10 cm culture dishes using conventional complete medium without resistance. After 2 days, the medium with resistance was replaced, and the culture was continued. After that, the medium with resistance was replaced every 2 days, and the suspended cells were discarded. The original medium was centrifuged to remove cells and debris and retained as an adaptive medium. When the cells covered the culture dish, the cells were digested, counted, and passaged in a 96-well plate, so that the average number of cells contained in each well was 1.5/well, and the adaptive medium was used for passage. The rest of the cells were frozen. After passage, culture for 4 hours to allow the cells to adhere to the wall, and then observe the number of cells in each well under a microscope. Wells with only 1 cell per well were labeled as monoclonal wells. Afterwards, normal culture was performed, and the culture medium was replaced every 2 days, and observed. There are wells where the monoclonal cells continue to grow in the early stage, and they are labeled twice, and can be replaced with normal medium with resistance. When a monoclonal well was overgrown with a 96-well plate, it is digested and passaged to a 24-well culture plate. After the 24-well plate is overgrown, it is passaged to a 96-well plate and a 6-well plate. The cells in a 96-well plate are at least 6 wells, of which 3 wells were added with known Wnt inhibitors, and the other 3 wells were not treated. After 24 hours, the cells in the 96-well plate were added with a fluorescence detection reagent to detect the fluorescence intensity. Cell lines with fluorescent expression when not treated and decreased fluorescent light after inhibition were selected and further cultured. The Colo205-LUC-TCF/LEF-M1 cell line is one of the cell lines screened above. Its growth curve, cell shape, and cell growth state are similar to those of the original Colo205 cells, and the ratio of the fluorescent signals of the inhibitor-treated and untreated cells is the largest among all cell lines, and the ratio can reach 4-5 times when inhibited at 4 hours, which was completely suitable for the screening of Wnt inhibitors in the later stage.
The Colo205-LUC-TCF/LEF M1 cell line is a reporter tool cell stably transfected with the pGL4.49-LUC2-TCF/LEF vector. The β-catenin Wnt pathway is continuously activated. After adding the inhibitor, the Wnt pathway is inhibited. The expression of firefly luciferase regulated by the TCF/LEF cis-element decreased, and after adding the detection substrate, the detected light signal decreased accordingly, so as to detect the inhibitory effect of the compound.
To a 96-well cell culture plate, add 100 uL of the compound with a maximum concentration of 20 uM to each well, and make a 3-fold serial dilution of the compound concentration. Then 10,000 colo205 cells stably transfected with the reporter gene and 100 uL medium were inoculated into each well, and corresponding positive and negative control wells were made at the same time. Put the cells in a 5% CO2 incubator and incubate at 37° C. for 4 hours. After 4 hours, remove the culture medium, add 100 μL of reagent (Promega) containing the corresponding firefly luciferase substrate to each well, and measure the activity of luciferase reporter gene. Luminescence intensity was read with SpectraMax in full wavelength mode. […]

HepG2 = test: Proliferation inhibition test, Wnt mutant cell line HepG2; settings: Homo sapiens, HepG2, 96 h, HepG2, 96 h culture with compound; read-out: Antiproliferation IC50 HepG2
From the text: as §1, §2

Colo205 = test: Proliferation inhibition test, Wnt mutant cell line Colo205; settings: Homo sapiens, COLO 205, 96 h, Colo205, 96 h culture with compound; read-out: Antiproliferation IC50 Colo205
From the text: as §1, §2

IC50 (H929)	IC50 [1]	IC50 (HepG2)	IC50 (Colo205)	SMILES	IC50 (RKO)	IC50 (DU4475)
103 nM	21.5 nM	1.13 nM	< 0.1 nM	CNc1nc(C(F)(F)F)ccc1Oc1ccc(CNc2nc3c4c(n2)N(C)[C@@](C)(CO)C(=O)N4CCC3)cn1 [Compound 16, (S)-5-(Hydroxymethyl)-4,5-dimethyl-2-(((6-((2-(methylamino)-6-(trifluoromethyl)pyridin-3-yl)oxy)pyridin-3-yl)methyl)amino)-4,5,9,10-tetrahydro-6H,8H-pyrido[3,2,1-de]pteridin-6-one]	> 10 µM	1.2 nM
278 nM	66.3 nM	89.7 nM	42.6 nM	[2H]C([2H])([2H])N1c2nc(NCc3ccc(Oc4cnc(C(F)(F)F)nc4C)nc3)nc3c2N(CCC3)C(=O)[C@@H]1CO [Compound 4, (S)-5-(Hydroxymethyl)-4-(methyl-d3)-2-(((6-((4-methyl-2-(trifluoromethyl)pyrimidin-5-yl)oxy)pyridin-3-yl)methyl)amino)-4,5,9,10-tetrahydro-6H,8H-pyrido[3,2,1-de]pteridin-6-one]	> 10 µM	25.8 nM
52.2 nM	10.7 nM	15.6 nM	5.54 nM	[2H]C([2H])([2H])N1c2nc(NCc3ccc(Oc4cnc(C(F)(F)F)nc4CC)nc3)nc3c2N(CCC3)C(=O)[C@]1(C)CO [Compound 7, (S)-2-(((6-((4-ethyl-2-(trifluoromethyl)pyrimidin-5-yl)oxy)pyridin-3-yl)methyl)amino)-5-(hydroxymethyl)-5-methyl-4-(methyl-d3)-4,5,9,10-tetrahydro-6H,8H-pyrido[3,2,1-de]pteridin-6-one]	> 10 µM	3.59 nM
40.3 nM	15.5 nM	1.45 nM	7.81 nM	[2H]C([2H])([2H])N1c2nc(NCc3ccc(Oc4ccc(C(F)(F)F)nc4Cl)nc3)nc3c2N(CCC3)C(=O)[C@@H]1CO [Compound 1, (S)-2-(((6-((2-chloro-6-(trifluoromethyl)pyridin-3-yl)oxy)pyridin-3-yl)methyl)amino)-5-(hydroxymethyl)-4-(methyl-d3)-4,5,9,10-tetrahydro-6H,8H-pyrido[3,2,1-de]pteridin-6-one]	> 10 µM	3.17 nM
599 nM	264 nM	879 nM	179 nM	CN1c2nc(NCc3ccc(Oc4ccc(C(F)(F)F)nc4CC#N)nc3)nc3c2N(CCC3)C(=O)[C@@H]1CO [Compound 17, (S)-2-(3-((5-(((5-(Hydroxymethyl)-4-methyl-6-carbonyl-5,6,9,10-tetrahydro-4H,8H-pyrido[3,2,1-de]pteridin-2-yl)amino)methyl)pyridin-2-yl)oxy)-6-(trifluoromethyl)pyridin-2-yl)acetonitrile]	> 10 µM	42.9 nM
–	35.2 nM	79 nM	70.3 nM	CCc1nc(C(F)(F)F)ncc1Oc1ccc(CNc2nc3c4c(n2)N(C)[C@@](C)([C@H](C)O)C(=O)N4CCC3)cn1 [Compound 14, (S)-2-(((6-((4-ethyl-2-(trifluoromethyl)pyrimidin-5-yl)oxy)pyridin-3-yl)methyl)amino)-5-((S)-1-hydroxyethyl)-4,5-dimethyl-4,5,9,10-tetrahydro-6H,8H-pyrido[3,2,1-de]pteridin-6-one]	> 10 µM	–
255 nM	4.94 nM	1.52 nM	< 0.1 nM	CN1c2nc(NCc3ccc(Oc4ccc(C(F)(F)F)nc4N4CC(F)(F)C4)nc3)nc3c2N(CCC3)C(=O)[C@]1(C)CO [Compound 21]	> 10 µM	4.83 nM
192 nM	64.7 nM	37.5 nM	53.7 nM	Cc1nc(C(F)(F)F)ncc1Oc1ccc(CNc2nc3c4c(n2)N(C)[C@@H]([C@@H](C)O)C(=O)N4CCC3)cn1 [Compound 23]	> 10 µM	16 nM
52 nM	1.46 nM	3.22 nM	< 0.1 nM	CN(c1nc(C(F)(F)F)ccc1Oc1ccc(CNc2nc3c4c(n2)N(C)[C@@](C)(CO)C(=O)N4CCC3)cn1)C1CC1 [Compound 20]	> 10 µM	< 0.1 nM
54 nM	6.86 nM	19.1 nM	11.5 nM	CN1c2nc(NCc3ccc(Oc4ccc(C(F)(F)F)nc4N4CCCC4)nc3)nc3c2N(CCC3)C(=O)[C@]1(C)CO [Compound 13, (S)-5-(Hydroxymethyl)-4,5-dimethyl-2-(((6-((2-(pyrrolidin-1-yl)-6-(trifluoromethyl)pyridin-3-yl)oxy)pyridin-3-yl)methyl)amino)-4,5,9,10-tetrahydro-6H,8H-pyrido[3,2,1-de]pteridin-6-one]	> 10 µM	1.58 nM
36.4 nM	13.8 nM	11.3 nM	8.43 nM	[2H]C([2H])([2H])N1c2nc(NCc3ccc(Oc4cnc(C(F)(F)F)nc4C4CC4)nc3)nc3c2N(CCC3)C(=O)[C@@H]1CO [Compound 9, (S)-2-(((6-((4-cyclopropyl-2-(trifluoromethyl)pyrimidin-5-yl)oxy)pyridin-3-yl)methyl)amino)-5-(hydroxymethyl)-4-(methyl-d3)-4,5,9,10-tetrahydro-6H,8H-pyrido[3,2,1-de]pteridin-6-one]	> 10 µM	0.46 nM
126 nM	27.4 nM	61.3 nM	25.7 nM	Cc1nc(C(F)(F)F)ncc1Oc1ncc(CNc2nc3c4c(n2)N(C)[C@@](C)(CO)C(=O)N4CCC3)cc1F [Compound 28]	> 10 µM	16.8 nM
58.3 nM	34.8 nM	31.1 nM	26.6 nM	Cc1nc(C(F)(F)F)ncc1Oc1ccc(CNc2nc3c4c(n2)N(C)[C@@](C)(CO)C(=O)N4CCC3)cn1 [Compound 19]	> 10 µM	14.8 nM
–	< 0.1 nM	1.3 nM	1.35 nM	CN(C)c1nc(C(F)(F)F)ccc1Oc1ccc(CNc2nc3c4c(n2)N(C)[C@@](C)(CO)C(=O)N4CCC3)cn1 [Compound 15, (S)-2-(((6-((2-(dimethylamino)-6-(trifluoromethyl)pyridin-3-yl)oxy)pyridin-3-yl)methyl)amino)-5-(hydroxymethyl)-4,5-dimethyl-4,5,9,10-tetrahydro-6H,8H-pyrido[3,2,1-de]pteridin-6-one]	> 10 µM	–
